Molecular target: T1, PEPC (phosphoenolpyruvate carboxylase)
T1 construct: native enzyme in desalted (Sephadex G-25) crude leaf extract, not purified; phosphorylation state varies over the day
Assay: NADH oxidation at […] nm, coupled to endogenous MDH in desalted leaf extract
Assay type: biochemical, Phalaenopsis hybrid cultivar
Settings: daytime leaves (mean of fluctuating values); 2.5 mM PEP, 10 mM NaHCO3, 5 mM MgCl2, pH 7.5, 25 °C; crude desalted extract

O=C(O)C[C@H](O)C(=O)O [malic acid]
Ki: 6 ± 3 mM
